Values quoted from earlier work, collected in patent US8022179B2 (priority 2005, dated 2011).

Test system: wrinkles
Settings: in vivo; cited from earlier work

ARGIRELINE
wrinkle reduction: affords wrinkle reduction in certain cases
